Test results taken from the kinase profiling compilation of Christmann-Franck et al. (2016).

Experiments:
Test in all cases: radiometric filter-binding kinase assay, Kinaseprofiler
FGFR3 (human) = FGFR3 (human) (UniProt P22607)
FES (human) = FES (human) (UniProt P07332)
FLT4 (human) = FLT4 (human) (UniProt P35916)
MERTK (human) = MERTK (human) (UniProt Q12866)
Sequence of MERTK (human) (Q12866 whole entry, looked up): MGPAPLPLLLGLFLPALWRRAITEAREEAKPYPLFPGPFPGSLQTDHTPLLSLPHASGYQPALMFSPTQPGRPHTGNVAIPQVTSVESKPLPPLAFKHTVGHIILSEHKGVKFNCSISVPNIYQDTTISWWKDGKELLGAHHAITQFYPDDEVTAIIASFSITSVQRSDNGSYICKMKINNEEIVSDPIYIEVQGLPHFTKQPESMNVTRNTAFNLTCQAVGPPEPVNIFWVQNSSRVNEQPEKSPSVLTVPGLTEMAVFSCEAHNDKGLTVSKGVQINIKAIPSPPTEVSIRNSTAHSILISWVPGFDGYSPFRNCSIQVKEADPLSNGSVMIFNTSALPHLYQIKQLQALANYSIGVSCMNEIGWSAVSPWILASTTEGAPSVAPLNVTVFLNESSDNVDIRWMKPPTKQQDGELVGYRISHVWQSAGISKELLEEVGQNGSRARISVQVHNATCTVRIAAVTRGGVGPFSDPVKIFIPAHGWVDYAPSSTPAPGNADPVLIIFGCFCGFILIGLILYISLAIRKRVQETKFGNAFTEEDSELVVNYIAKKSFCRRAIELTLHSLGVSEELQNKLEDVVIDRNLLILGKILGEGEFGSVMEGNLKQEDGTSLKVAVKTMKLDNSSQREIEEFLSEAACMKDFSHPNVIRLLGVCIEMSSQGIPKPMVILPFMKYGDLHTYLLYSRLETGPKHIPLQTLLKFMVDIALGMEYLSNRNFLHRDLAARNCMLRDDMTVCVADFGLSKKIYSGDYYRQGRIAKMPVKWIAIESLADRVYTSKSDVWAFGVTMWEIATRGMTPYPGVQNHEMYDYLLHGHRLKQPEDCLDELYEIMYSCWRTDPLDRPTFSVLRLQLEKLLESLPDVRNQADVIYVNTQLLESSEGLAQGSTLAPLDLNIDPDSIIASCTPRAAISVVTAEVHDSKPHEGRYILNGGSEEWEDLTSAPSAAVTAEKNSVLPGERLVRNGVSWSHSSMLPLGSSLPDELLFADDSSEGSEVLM

Sequence of FGFR3 (human) (P22607 whole entry, looked up): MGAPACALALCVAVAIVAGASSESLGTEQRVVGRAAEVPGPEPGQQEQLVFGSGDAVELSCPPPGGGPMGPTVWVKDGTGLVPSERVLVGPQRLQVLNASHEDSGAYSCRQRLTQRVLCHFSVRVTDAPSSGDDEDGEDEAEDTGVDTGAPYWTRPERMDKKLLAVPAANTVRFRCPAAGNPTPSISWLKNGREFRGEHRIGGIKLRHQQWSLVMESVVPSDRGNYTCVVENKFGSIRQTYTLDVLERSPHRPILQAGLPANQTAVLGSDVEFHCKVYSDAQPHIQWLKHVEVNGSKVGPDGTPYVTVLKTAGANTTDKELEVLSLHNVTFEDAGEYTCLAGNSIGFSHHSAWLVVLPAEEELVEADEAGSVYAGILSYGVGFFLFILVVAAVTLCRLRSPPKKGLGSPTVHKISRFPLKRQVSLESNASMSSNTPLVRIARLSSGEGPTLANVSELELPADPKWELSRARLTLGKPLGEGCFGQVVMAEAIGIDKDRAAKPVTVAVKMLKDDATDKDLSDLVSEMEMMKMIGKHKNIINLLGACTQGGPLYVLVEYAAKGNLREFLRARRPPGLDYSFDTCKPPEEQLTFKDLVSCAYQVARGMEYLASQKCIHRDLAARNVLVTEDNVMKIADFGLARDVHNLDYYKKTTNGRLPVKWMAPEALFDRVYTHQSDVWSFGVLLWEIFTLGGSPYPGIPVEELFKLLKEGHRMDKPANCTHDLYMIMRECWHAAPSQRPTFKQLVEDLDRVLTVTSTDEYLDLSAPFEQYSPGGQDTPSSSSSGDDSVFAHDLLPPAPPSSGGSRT
Sequence of FES (human) (P07332 whole entry, looked up): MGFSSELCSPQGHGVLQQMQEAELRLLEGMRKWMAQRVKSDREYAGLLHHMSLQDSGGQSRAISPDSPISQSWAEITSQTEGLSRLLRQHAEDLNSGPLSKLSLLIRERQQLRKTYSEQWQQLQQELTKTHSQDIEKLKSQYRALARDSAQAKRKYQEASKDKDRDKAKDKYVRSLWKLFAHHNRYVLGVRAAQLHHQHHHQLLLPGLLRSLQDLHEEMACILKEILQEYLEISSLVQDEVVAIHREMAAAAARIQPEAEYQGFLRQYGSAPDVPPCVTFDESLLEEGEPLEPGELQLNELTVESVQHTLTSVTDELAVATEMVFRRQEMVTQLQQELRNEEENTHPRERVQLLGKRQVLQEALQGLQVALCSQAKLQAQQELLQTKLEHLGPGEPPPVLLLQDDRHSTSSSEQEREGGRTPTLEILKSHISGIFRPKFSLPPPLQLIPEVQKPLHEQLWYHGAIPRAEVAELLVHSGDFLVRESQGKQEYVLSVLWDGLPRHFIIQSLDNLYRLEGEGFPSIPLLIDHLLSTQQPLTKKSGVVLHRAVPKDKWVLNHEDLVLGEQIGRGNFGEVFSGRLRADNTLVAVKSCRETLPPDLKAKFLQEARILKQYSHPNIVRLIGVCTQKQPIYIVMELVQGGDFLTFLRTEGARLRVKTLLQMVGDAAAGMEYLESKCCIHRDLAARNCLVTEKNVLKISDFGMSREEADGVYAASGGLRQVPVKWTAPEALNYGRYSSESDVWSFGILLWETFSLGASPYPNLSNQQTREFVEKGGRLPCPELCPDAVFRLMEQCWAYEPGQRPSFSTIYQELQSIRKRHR
Sequence of FLT4 (human) (P35916 whole entry, looked up): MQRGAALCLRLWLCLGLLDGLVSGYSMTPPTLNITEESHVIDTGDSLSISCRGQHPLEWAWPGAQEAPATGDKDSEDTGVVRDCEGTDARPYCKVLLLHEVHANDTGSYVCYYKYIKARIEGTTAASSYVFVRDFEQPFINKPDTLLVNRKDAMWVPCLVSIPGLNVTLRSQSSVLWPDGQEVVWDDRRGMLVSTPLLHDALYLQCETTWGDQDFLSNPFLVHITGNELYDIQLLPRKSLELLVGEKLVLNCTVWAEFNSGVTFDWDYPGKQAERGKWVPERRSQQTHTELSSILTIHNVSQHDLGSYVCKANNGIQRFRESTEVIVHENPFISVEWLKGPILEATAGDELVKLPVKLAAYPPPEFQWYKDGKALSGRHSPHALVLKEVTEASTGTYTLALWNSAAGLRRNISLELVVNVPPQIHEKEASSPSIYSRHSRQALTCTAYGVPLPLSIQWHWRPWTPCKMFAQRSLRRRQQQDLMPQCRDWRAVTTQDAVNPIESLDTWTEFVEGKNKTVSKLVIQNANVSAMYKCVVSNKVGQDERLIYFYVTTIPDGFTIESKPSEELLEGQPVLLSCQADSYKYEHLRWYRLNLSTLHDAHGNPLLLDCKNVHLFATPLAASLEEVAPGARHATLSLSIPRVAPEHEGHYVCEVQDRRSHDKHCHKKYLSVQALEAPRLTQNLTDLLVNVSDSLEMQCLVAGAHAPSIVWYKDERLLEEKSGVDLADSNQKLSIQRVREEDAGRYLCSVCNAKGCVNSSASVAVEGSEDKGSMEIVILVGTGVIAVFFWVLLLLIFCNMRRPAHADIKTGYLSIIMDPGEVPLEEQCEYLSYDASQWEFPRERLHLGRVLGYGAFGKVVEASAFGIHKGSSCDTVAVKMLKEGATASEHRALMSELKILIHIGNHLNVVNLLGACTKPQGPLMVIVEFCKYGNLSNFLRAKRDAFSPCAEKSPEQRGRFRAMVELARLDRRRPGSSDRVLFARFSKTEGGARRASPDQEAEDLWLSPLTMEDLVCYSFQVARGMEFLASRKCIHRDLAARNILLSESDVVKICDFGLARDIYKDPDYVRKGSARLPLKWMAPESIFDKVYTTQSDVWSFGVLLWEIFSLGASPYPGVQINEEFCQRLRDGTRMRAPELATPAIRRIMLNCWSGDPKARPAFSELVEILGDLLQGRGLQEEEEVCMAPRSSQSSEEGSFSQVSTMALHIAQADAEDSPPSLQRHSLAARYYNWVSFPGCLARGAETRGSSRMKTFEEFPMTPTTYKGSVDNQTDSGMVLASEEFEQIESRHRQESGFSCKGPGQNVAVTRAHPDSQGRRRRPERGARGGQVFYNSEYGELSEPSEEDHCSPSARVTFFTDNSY

IC50 (FGFR3 (human)): 1 µM
IC50 (FES (human)): > 10 µM
IC50 (FLT4 (human)): 0.92 µM
IC50 (MERTK (human)): 0.88 µM
Compound: Cn1cc(-c2cnc3ccc4ccc(CS(=O)(=O)NCc5ccccn5)cc4c(=O)c3c2)cn1
